Measured values published in publication PMC9797592, “TJ-M2010-5, a novel CNS drug candidate, attenuates acute cerebral ischemia-reperfusion injury through the MyD88/NF-κB and ERK pathway” (Frontiers in Pharmacology, 2022).

What was measured:
CIRI mice = assay: MCAO cerebral ischemia-reperfusion injury model: neurological deficit score and TTC infarct volume; assay type: in vivo, C57BL/6 mice; conditions: edaravone 3 mg/kg i.v. at 1 h of ischemia; 24 h reperfusion; TTC; I/R group 34.24%
Procedure: Male C57BL/6 mice (Beijing Vital River Laboratory Animal Technology Co. Ltd., Beijing, China) weighing 22–28 g and aged 8–10 weeks were used. All animal experiments were approved by the Institutional Animal Care and Use Committee of Tongji Hospital (Wuhan, China). All procedures were performed in accordance with specific pathogen-free standards. Mice were randomly divided into the following seven groups: sham, I/R, vehicle (I/R + saline), I/R + TJ-5 (5 mg/kg), I/R + TJ-5 (10 mg/kg), I/R + TJ-5 (15 mg/kg), and I/R + edaravone (3 mg/kg).
The mice were anesthetized with 1% pentobarbital sodium solution via intraperitoneal injection, and the body temperature was maintained at 37.0°C–37.5°C. The middle cerebral artery occlusion (MCAO) model was established according to the Longa method, as described previously ([Longa et al., 1989]). In brief, the right carotid artery was carefully separated and exposed. A silicon-coated embolic suture (Doccol, United States) was inserted slowly from the external carotid artery (ECA) into the internal carotid artery (ICA) until it reached the middle cerebral artery (MCA). After 1 h of ischemia, the embolic suture was withdrawn. The surgical procedure in the sham group was the same as that in the I/R group, but the MCA was not obstructed.
After 24 h of reperfusion, each group of mice was scored blindly, according to the scoring system of the Longa method ([Longa et al., 1989]). The score was 0 for no obvious neurological deficit, one for inability to fully extend the left forelimb, two for turning to the left, three for leaning to the left while walking, and four for the inability to walk spontaneously and impaired consciousness.
The mice were sacrificed 24 h after I/R. Mouse brains were harvested for the measurement of cerebral infarct volume. The brains were frozen at −80°C for 5 min and cut into five 2-mm thick slices. The slices were then placed in a small dish, 2% 2,3,5-triphenyltetrazolium chloride (TTC) solution (Sigma, United States) was added, and 4% paraformaldehyde was used for fixation. Images were captured using a digital camera. ImageJ software was used to measure the volume of the brain infarction.

[1] = system: LPS-stimulated BV-2 cells; assay: LPS-stimulated BV-2 cell model: morphology and TNF-α/IL-6 ELISA; assay type: cell-based; conditions: LPS-stimulated BV-2 cells; pretreatment 2 h, LPS 24 h; ELISA
Procedure: (§1) BV-2 microglial and SH-SY5Y cells were cultured as previously described ([Zhao et al., 2020]). A lipopolysaccharide (LPS)-stimulated BV-2 cell model was established to mimic severe neuroinflammation induced by multiple inflammatory mediators after reperfusion ([Li et al., 2021]). BV-2 cells were pretreated with different concentrations of TJ-5 for 2 h before LPS (1 μg/ml) stimulation (#L2880, Sigma, United States). Twenty-4 hours later, BV-2 cells and the culture supernatants were harvested for subsequent experiments. In addition, ST2825, a recognized MyD88 inhibitor, was used as positive control group.
Enzyme-linked immunosorbent assay (ELISA) kits were used to detect the levels of TNF-α, IL-1β, and IL-6 in the brain. Brain tissue was homogenized in 1 ml of phosphate-buffered saline using a tissue homogenizer. Then, the homogenates were centrifuged at 14,000 g for 10 min at 4 °C. The supernatant was immediately transferred for measurement following the manufacturer’s instructions. BV-2 cells were incubated with different treatments and the supernatants were collected and measured.

NF-κB p65 = NF-κB p65 nuclear translocation in LPS-stimulated BV-2 cells, immunofluorescence; assay type: cell-based; conditions: 12 h after LPS stimulation
Procedure: as §1, with “Twenty-4 hours later, BV-2 cells and the culture supernatants were harvested for subsequent experiments.” left out
For BV-2 cells immunofluorescence staining, the cells were fixed with 4% paraformaldehyde for 10 min and permeabilized with 0.5% Triton X-100 for 10 min. After blocking with goat serum, the cells were sequentially incubated with the primary antibody, secondary antibody, and Hoechst in sequence. Images were captured using a confocal microscope. The fluorescence intensity was analyzed using ImageJ software.

Compound | percentage of infarct volume (CIRI mice) [%] | levels of TNF-α and IL-6 in supernatants [1] | LPS-induced NF-κB p65 nuclear translocation (NF-κB p65)
CC1=NN(c2ccccc2)C(=O)C1 [edaravone, reference compound] | 18.59 |  | 
NC(=O)[C@H]1CCS[C@@H]2C[C@]3(CCCN3C(=O)Cc3ccc(NC(=O)COc4ccc(Cl)cc4Cl)cc3)C(=O)N12 [ST2825, reference compound] |  | same anti-inflammatory effect | same
